# Test results published in patent US11014898B1, “Benzothiazepine compounds and their use as bile acid modulators” (Albireo AB, priority 2020, dated 2021).
# Tests used:
# Human IBAT = target: T1, Human IBAT (Homo sapiens, UniProt Q12908); assay: IBAT (h) assay: 3H-taurocholic acid uptake in human IBAT-overexpressing cells; format: cell-based; conditions: 0.25 μM 3H-taurocholic acid and 5 μM cold taurocholic acid, 20 minutes, read-out: hIBAT IC50
# T1 construct: expressed in transfected cells; cells kept under Puromycin selection
# T1 sequence (Q12908 1-348): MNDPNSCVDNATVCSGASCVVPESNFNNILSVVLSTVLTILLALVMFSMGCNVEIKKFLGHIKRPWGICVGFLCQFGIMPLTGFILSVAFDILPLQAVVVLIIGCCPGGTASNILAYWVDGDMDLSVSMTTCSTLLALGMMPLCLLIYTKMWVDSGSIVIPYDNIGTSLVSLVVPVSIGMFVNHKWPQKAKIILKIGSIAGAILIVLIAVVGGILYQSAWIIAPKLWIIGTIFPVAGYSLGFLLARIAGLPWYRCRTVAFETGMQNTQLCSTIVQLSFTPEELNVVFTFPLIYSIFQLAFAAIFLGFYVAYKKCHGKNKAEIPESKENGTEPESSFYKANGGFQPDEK
# Protocol: 10,000 cells (Human or Mouse IBAT-overexpressing cells) were seeded in 96-wells plate (Corning CLS3809) in 200 μL MEM-alpha medium (Gibco 12571-063) supplemented with 10% FBS (Gibco 10438026) containing Puromycin (Gibco A1113803) (10 μg/mL) and incubated at 37° C. in 5% CO2 for 48 hours. After incubation, media was decanted from the wells and cells were washed two times with 300 μL of basal MEM-alpha medium (FBS-free). After decanting basal MEM-alpha medium each time, plates were tapped against paper towel to ensure maximum removal of residual media. Test inhibitor dilutions (highest test concentration being 10 μM, 3-fold serial dilution, 10 points) prepared in DMSO (Sigma D2650) were added in incubation mix (maintaining 0.2% final DMSO concentration) containing 0.25 μM 3H-taurocholic acid (ARC ART-1368) and 5 μM of cold taurocholic acid (Sigma T4009). 50 μL of incubation mix containing test inhibitors was then added to the wells (in duplicate) and the plates were incubated for 20 minutes in a CO2 incubator at 37° C. After incubation, the reaction was stopped by keeping the plates on ice water mix for 2-3 minutes and then the incubation mix was aspirated completely from the wells. The wells were washed two times with 250 μL of chilled unlabelled 1 mM taurocholic acid dissolved in HEPES (Gibco 15630080)-buffered (10 mM) HBSS (Gibco 14175079) (pH 7.4). The plates were tapped against a paper towel after every wash to ensure maximum removal of blocking buffer.
# 100 μL of MicroScint-20 (PerkinElmer 6013621) was added to the wells and kept overnight at room temperature before reading the plates in TopCount NXT™ Microplate Scintillation and Luminescence Counter from PerkinElmer under 3H Test protocol (set at 120 seconds reading time per well).
# All test compounds were provided in powder form at room temperature. 10 mM DMSO stocks of the test compounds were prepared, aliquoted and stored at −20° C. From the 10 mM DMSO stock of the compounds, a 3-fold serial dilution in DMSO was prepared to get a total of 10 dilutions of the test compounds. 0.5 μL of this dilution in DMSO was added to 250 μL of FBS-free basal media containing 3H-taurocholic acid and cold taurocholic acid to prepare the incubation mixture.
# [1] = Bidirectional permeability assay (Caco-2 cells); format: in vitro ADME; conditions: human, Caco-2, pH 7.4, 10 μM in FaSSIF buffer, 120 minutes at 37° C.; for Papp A→B at 120 min, 10 μM: absorptive direction (A2B); for Papp B→A at 120 min, 10 μM: secretory direction (B2A)
# Protocol: Caco-2 cells (Evotec) were seeded at a density of 70,000 cells/well in Millicell® 24-well cell culture insert plates and maintained in an incubator (37° C., 5% CO2, 95% RH) for 21 days with media change on alternate days.
# Stock solutions (10 mM) of the test compounds, atenolol (low permeability marker), propranolol (high permeability marker) and digoxin (substrate for P-gp transport pathway) were prepared in dimethylsulfoxide (DMSO). An intermediate stock solution (1 mM) was prepared by diluting 10 μL of 10 mM master stock solution with 90 μL of neat DMSO. A working stock solution (10 μM) was prepared by diluting 50 μL of 1 mM with 4950 μL of FaSSIF buffer. Post addition of compounds to the FaSSIF, samples were subjected to sonication for 2 hours, and centrifuged at 4000 RPM for 30 minutes at 37° C. The 4 mL of resultant supernatant was directly used in the assay. The final DMSO concentration in the transport experiments was 1%.
# On the day of assay, Caco-2 monolayers were washed twice with transport buffer (HBSS, pH 7.4) and pre-incubated for 30 min (37° C., 5% CO2, 95% RH) in an incubator. The electrical resistance of the monolayers was measured with a Millicell®-ERS system. Monolayers with trans-epithelial electrical resistance (TEER) values greater than 350 ohm·cm^2 were selected for the assay.
# The assay was conducted in absorptive direction (A2B) and secretory (B2A) directions. Transport experiments were initiated by addition of transport assay buffer (FaSSIF buffer prepared in HBSS) consisting of compounds to the donor compartment (apical chamber A-B; basolateral chamber B-A) in duplicate (n=2) wells. Drug free HBSS buffer (pH 7.4) containing 1% bovine serum albumin (BSA) was introduced to the receiver (A-B-basolateral; B-A-Apical) compartments. The volumes of apical and basolateral compartments were 0.4 and 0.8 mL, respectively. After adding dosing solution, plates were incubated in an incubator for 120 minutes at 37° C. After 120 minutes, donor and receiver samples were collected and matrix matched (1:1, 30 μL study sample+30 μL blank buffer) with the opposite buffer. Dosing samples matrix matched (1:1, 30 μL study sample+30 μL blank buffer) with the opposite buffer. Samples were processed by adding acetonitrile containing internal standard (60 μL study sample+200 μL acetonitrile containing internal standard-Tolbutamide, 500 ng/mL). Samples were vortexed and centrifuged at 4000 rpm for 10 minutes. The obtained supernatant (100 μL) was diluted with 100 μL of water and transferred to fresh 96 well plates. The concentration of compounds in the samples was analyzed by liquid chromatography tandem mass spectrometry (LC-MS/MS) method using discovery grade bio-analytical method, as applicable.
# The mean apparent permeability (Papp×10^−6 cm/sec) of the test compounds, atenolol, propranolol and digoxin were calculated as follows:
# where dq/dt=rate of transport (rate of transport of compound in the receiver compartment), C0=initial concentration in the donor compartment, A=surface area of the effective filter membrane.
Compound,IC50 (Human IBAT) [nM],"Papp A→B at 120 min, 10 μM [1] [×10⁻⁶ cm/s]","Papp B→A at 120 min, 10 μM [1] [×10⁻⁶ cm/s]"
"CCCCC1(CC)CN(c2ccccc2)c2cc(N(C)C)c(OCC(=O)O)cc2S(=O)(=O)C1 (racemic) [Example 7, 2-((3-butyl-7-(dimethylamino)-3-ethyl-1,1-dioxido-5-phenyl-2,3,4,5-tetrahydro-1,5-benzothiazepin-8-yl)oxy)acetic Acid]",14,,
"CCCCC1(CC)CN(c2ccc(F)cc2)c2cc(SC)c(OCC(=O)O)cc2S(=O)(=O)C1 (racemic) [Example 14, 2-((3-butyl-3-ethyl-5-(4-fluorophenyl)-7-(methylthio)-1,1-dioxido-2,3,4,5-tetrahydro-1,5-benzothiazepin-8-yl)oxy)acetic Acid]",6.4,,
"CCCCC1(CC)CN(c2ccccc2)c2cc(N(C)C)c(OCC(=O)O)cc2S(=O)(=O)C1 (single isomer, unassigned) [Example 9, 2-((3-butyl-7-(dimethylamino)-3-ethyl-1,1-dioxido-5-phenyl-2,3,4,5-tetrahydro-1,5-benzothiazepin-8-yl)oxy)acetic Acid]",217,,
"CCCCC1(CCCC)CN(c2ccccc2)c2cc(N(C)C)c(OCC(=O)O)cc2S(=O)(=O)C1 [Example 1, 2-((3,3-dibutyl-7-(dimethylamino)-1,1-dioxido-5-phenyl-2,3,4,5-tetrahydro-1,5-benzothiazepin-8-yl)oxy)acetic Acid]",24,3.2,9.4
"CCCCC1(CCCC)CN(c2ccc(OC)cc2)c2cc(SC)c(OCC(=O)O)cc2S(=O)(=O)C1 [Example 2, 2-((3,3-dibutyl-5-(4-methoxyphenyl)-7-(methylthio)-1,1-dioxido-2,3,4,5-tetrahydro-1,5-benzothiazepin-8-yl)oxy)acetic Acid]",38,4.3,6.6

# Second part, the compound after the results:
IC50 (Human IBAT) [nM],"Papp A→B at 120 min, 10 μM [1] [×10⁻⁶ cm/s]","Papp B→A at 120 min, 10 μM [1] [×10⁻⁶ cm/s]",Compound
19,,,"CCCCC1(CC)CN(c2ccc(O)cc2)c2cc(SC)c(OCC(=O)O)cc2S(=O)(=O)C1 (racemic) [Example 17, 2-((3-butyl-3-ethyl-5-(4-hydroxyphenyl)-7-(methylthio)-1,1-dioxido-2,3,4,5-tetrahydro-1,5-benzothiazepin-8-yl)oxy)acetic Acid]"
2.4,8.7,12.9,"CCCCC1(CC)CN(c2ccc(F)cc2)c2cc(SC)c(OCC(=O)O)cc2S(=O)(=O)C1 (single isomer, unassigned) [Example 15, 2-((3-butyl-3-ethyl-5-(4-fluorophenyl)-7-(methylthio)-1,1-dioxido-2,3,4,5-tetrahydro-1,5-benzothiazepin-8-yl)oxy)acetic acid]"
64,,,"CCCCC1(CC)CN(c2ccc(F)cc2)c2cc(SC)c(OCC(=O)O)cc2S(=O)(=O)C1 (single isomer, unassigned) [Example 16, 2-((3-butyl-3-ethyl-5-(4-fluorophenyl)-7-(methylthio)-1,1-dioxido-2,3,4,5-tetrahydro-1,5-benzothiazepin-8-yl)oxy)acetic acid]"
705,,,"CCCCC1(CC)CN(c2ccc(O)cc2)c2cc(SC)c(OCC(=O)O)cc2S(=O)(=O)C1 (single isomer, unassigned) [Example 19, 2-((3-butyl-3-ethyl-5-(4-hydroxyphenyl)-7-(methylthio)-1,1-dioxido-2,3,4,5-tetrahydro-1,5-benzothiazepin-8-yl)oxy)acetic Acid]"
17,,,"CCCCC1(CC)CN(c2ccc(OC)cc2)c2cc(SC)c(OCC(=O)O)cc2S(=O)(=O)C1 (stereo not shown) [Example 18, 2-((3-butyl-3-ethyl-5-(4-methoxyphenyl)-7-(methylthio)-1,1-dioxido-2,3,4,5-tetrahydro-1,5-benzothiazepin-8-yl)oxy)acetic Acid]"
